The text below walks through data of patent publication US10278971B2, “Fluorocyclopentenylcytosine methods of use” (Rexahn Pharmaceuticals, Inc., priority 2015, dated 2019).

Data set [1] has as its system SW1573/G. As to conditions: as reported in Peters et al. 2013; cited from earlier work.
Data set [2] deals with PCFT. Nature of the data set: PCFT mediated transport of radiolabeled MTX. It counts as cell-based, human. As to conditions: CEM cells, 24 hr; RX-3117 29.6 μM; DAC positive control. An excerpt: In this study, the following cell lines were used: (1) CCRF-CEM cells and its MTX resistant variant CEM-MTX, characterized by a deficiency of the reduced folate carrier (RFC) (Jansen G., et al., JBC 273 (1998) 30189-30198). The PCFT gene in CEM cells is highly methylated. (Gonen N., et al., BBRC 376 (2008) 787-92.); (2) CEM cells cultured in RPMI medium with 10% fetal bovine serum (FBS); and (3) A549 and SW1573 non-small cell lung cancer (NSCLC) and A2780 ovarian cancer cell lines cultured in DMEM medium with 10% FBS.
MTX transport was measured using radiolabeled MTX in CEM wild type and CEM-MTX cell lines. CEM cells have a high RFC activity. CEM-MTX are completely deficient in RFC-mediated transport. CEM cells have a highly methylated PCFT transporter and a very low PCFT mediated transport (Gonen N., et al., BBRC 376 (2008) 787-92). MTX transport at pH 7.4 is predominantly RFC mediated and less than 2% by PCFT. Folic acid was used to inhibit PCFT mediated transport. […] CEM and CEM-MTX cells were exposed to 29.6 μM RX-3117 and to 0, 19 μM aza-CdR as a positive control. MTX transport was measured after 24 hr to the drugs in a 3 minutes uptake assay using 2 μM [3′,5,′7-3H]-MTX.

The subject of data set [3] is DNMT1 mRNA. The experiment in a line: DNMT1 RNA expression by real-time PCR. It counts as cell-based, human. As to the method: (§1) DNMT1 protein expression was measured by Western Blotting after exposure to RX-3117 for 24 or 48 hr. DNMT1 RNA expression was measured by real-time PCR after 24 and 48 hr exposure to RX-3117. DNMT enzyme activity was measured in isolated nuclei after exposure 1 μM RX-3117 or 5 μM aza-CdR using a DNA methyltransferase assay kit provided by EpiGentek using the ability of a CpG dinding domain to bind to methylated DNA. In A549 cells the effect of 5 μM RX-3117 on overall methylation was measured with a specific antibody against 5-methyl-cytosine. Bands on Western blots were visualized using appropriate InfraRedDye using an Odyssey InfraRed imager.
A general note: In qPCR the cycle at which signal appears reflects the starting amount.

Data set [4] can be described thus: First-in-human study: pharmacokinetics, safety and tolerability. As to conditions: for Cmax / Tmax / half-life / bioavailability: both sexes, human, plasma; for bioavailability: n=3, read-out: absolute bioavailability (F). Type of data set: in vivo. The procedure:
In a first-in-human, open-label, exploratory study, the pharmacokinetics, safety and tolerability of RX-3117 were evaluated. The study duration was 14-15 days (7-day screening period; 3-day treatment period; 4 (+1)-day safety follow-up period). Nine adult male and female subjects with histologically confirmed, solid tumors enrolled in and completed the study. The subjects received RX-3117 (n=3 subjects per dose) as a single oral dose (50 mg or 100 mg) or a single intravenous dose (20 mg).

The test system of data set [5] is overall methylation of DNA. The experiment in a line: Overall methylation of DNA with antibody against 5-methyl-cytosine. It counts as cell-based, human. As to conditions: A549, 5 μM, 48 hr exposure. As to the method: as §1
Data set [6] relates to A549. As to conditions: as reported in Peters et al. 2013; cited from earlier work.

pIC50: −log10 of the molar value. Like-named read-outs stand apart in the source and are kept apart here.

In the case of `Nc1ccn([C@@H]2C(F)=C(CO)[C@@H](O)[C@H]2O)c(=O)n1` [RX-3117, 4-amino-1-((1S,4R,5S)-2-fluoro-4,5-dihydroxy-3-hydroxymethyl-cyclopent-2-enyl)-1H-pyrimidin-2-one], the pIC50 in data set [1] was 5.14; in data set [6], 5.08. The “increase of PCFT mediated transport of MTX” value in data set [2] is 4 fold. The “DNMT1 mRNA” value is “not affected” in data set [3] (A549 and SW1573, 24 hours exposure); “affected moderately” in data set [3] (A549 and SW1573, 48 hr). For the same molecule, the “increase of intravenous Cmax over the peak concentrations of the oral doses” value in data set [4] (20 mg intravenous vs 50 and 100 mg oral) is around 4 fold. Besides, the Cmax stood at 1140 ng/mL in data set [4] (single intravenous dose 20 mg), 303 ng/mL in data set [4] (single oral dose 50 mg) and 311 ng/mL in data set [4] (single oral dose 100 mg). Further, the Tmax in data set [4] (single intravenous dose 20 mg, read-out: Tmax) stood at 0.25 h; in data set [4] (single oral dose 50 mg, read-out: mean Tmax), 2.16 h; in data set [4] (single oral dose 100 mg, read-out: mean Tmax) it was 2.49 h. In addition, the half-life was 13.9 h in data set [4] (single oral dose 50 mg) and 20.9 h in data set [4] (single oral dose 100 mg). Moreover, the bioavailability in data set [4] (single oral dose 50 mg) was determined as 55.7%; in data set [4] (single oral dose 100 mg) it was 33.4%. The “adverse events (AE, TEAE, SAE)” value in data set [4] (single 50 or 100 mg oral or 20 mg intravenous dose) was “No adverse event”. The safety and tolerability entry in data set [4] (single 50 or 100 mg oral or 20 mg intravenous dose, all subjects) is “safe and well-tolerated”. The “decrease of overall methylation of DNA” value in data set [5] is 25%.

For orientation: pIC50 means −log10 of the IC50, conventionally taken in molar units. As usually defined, the Cmax is the peak of the concentration-time curve. The Tmax is the time from dosing to the highest level. Broadly, the half-life is the time in which the quantity being followed falls by half. As usually defined, the bioavailability is dose-corrected exposure relative to a reference, in per cent.
